Assay results as given in ChEMBL document CHEMBL6127113, “Penicamins A-L, Polyoxygenated Diterpenes from Penicillium camemberti JSB-7212” (J Nat Prod, 2024).
Active and inactive are the calls of the source. The calls are words filed in the database; no cut-off is given here.

Tested on: A549
Assay: Cytotoxicity against human A549 cells assessed as cell growth inhibition at 50 uM incubated for 48 hrs by CCK-8 assay
Assay type: functional, cell-based
Conditions: not given

| Compound | Activity |
| --- | --- |
| C=C(C)[C@H]1CC[C@@]23CO[C@@]4(O)C(=O)[C@@H](C)CC[C@](C)(C(=O)C[C@@]12O)[C@@]34O | inactive |
| C=C(C)[C@H]1CC[C@]2(C)C3=CC(=O)C(C)=CC[C@]3(C)C(=O)C[C@@]12O | inactive |
| C=C(C)[C@H]1CC[C@@]23CO[C@@](O)(C[C@@]12O)[C@@]1(C)C[C@H]2O[C@]13C(=O)C(O)=C2C | inactive |
| C=C(CO)[C@H]1CC[C@@]2(C)C1=CC(=O)[C@@]1(C)C[C@H]3O[C@@]21CC(=O)[C@H]3C | inactive |
| C=C(CO)[C@H]1CC[C@]2(C)[C@@]34CC(=O)[C@@H](C)[C@@H](C[C@]3(C)C(=O)C[C@@]12O)O4 | inactive |

Tested on: Splenocyte
Assay: Immunosuppressive activity in male BALB/c mouse splenocyte assessed as reduction in LPS-induced B-cell proliferation incubated for 48 hrs by CCK-8 assay
Assay type: functional, cell-based
Conditions: not given

| Compound | IC50 [µM] |
| --- | --- |
| C=C(CO)[C@H]1CC[C@@]2(C)C1=CC(=O)[C@@]1(C)C[C@H]3O[C@@]21CC(=O)[C@H]3C | 7.9 |
| C=C(CO)[C@H]1CC[C@]2(C)[C@@]34CC(=O)[C@@H](C)[C@@H](C[C@]3(C)C(=O)C[C@@]12O)O4 | 3 |

Tested on: Staphylococcus aureus
Assay: Antimicrobial activity against Staphylococcus aureus ATCC25923 assessed as inhibition of microbial growth at 50 uM incubated for 24 hrs by microbroth dilution assay
Assay type: functional, organism-based
Conditions: not given

| Compound | Activity |
| --- | --- |
| C=C(C)[C@H]1CC[C@@]23CO[C@@]4(O)C(=O)[C@@H](C)CC[C@](C)(C(=O)C[C@@]12O)[C@@]34O | inactive |
| C=C(C)[C@H]1CC[C@]2(C)C3=CC(=O)C(C)=CC[C@]3(C)C(=O)C[C@@]12O | inactive |
| C=C(C)[C@H]1CC[C@@]23CO[C@@](O)(C[C@@]12O)[C@@]1(C)C[C@H]2O[C@]13C(=O)C(O)=C2C | inactive |
| C=C(CO)[C@H]1CC[C@@]2(C)C1=CC(=O)[C@@]1(C)C[C@H]3O[C@@]21CC(=O)[C@H]3C | inactive |
| C=C(CO)[C@H]1CC[C@]2(C)[C@@]34CC(=O)[C@@H](C)[C@@H](C[C@]3(C)C(=O)C[C@@]12O)O4 | inactive |

Tested on: HT-29
Assay: Cytotoxicity against human HT-29 cells assessed as cell growth inhibition at 50 uM incubated for 48 hrs by CCK-8 assay
Assay type: functional, cell-based
Conditions: not given

| Compound | Activity |
| --- | --- |
| C=C(C)[C@H]1CC[C@@]23CO[C@@]4(O)C(=O)[C@@H](C)CC[C@](C)(C(=O)C[C@@]12O)[C@@]34O | inactive |
| C=C(C)[C@H]1CC[C@]2(C)C3=CC(=O)C(C)=CC[C@]3(C)C(=O)C[C@@]12O | inactive |
| C=C(C)[C@H]1CC[C@@]23CO[C@@](O)(C[C@@]12O)[C@@]1(C)C[C@H]2O[C@]13C(=O)C(O)=C2C | inactive |
| C=C(CO)[C@H]1CC[C@@]2(C)C1=CC(=O)[C@@]1(C)C[C@H]3O[C@@]21CC(=O)[C@H]3C | inactive |
| C=C(CO)[C@H]1CC[C@]2(C)[C@@]34CC(=O)[C@@H](C)[C@@H](C[C@]3(C)C(=O)C[C@@]12O)O4 | inactive |

Tested on: MCF7
Assay: Cytotoxicity against human MCF7 cells assessed as cell growth inhibition at 50 uM incubated for 48 hrs by CCK-8 assay
Assay type: functional, cell-based
Conditions: not given

| Compound | Activity |
| --- | --- |
| C=C(C)[C@H]1CC[C@@]23CO[C@@]4(O)C(=O)[C@@H](C)CC[C@](C)(C(=O)C[C@@]12O)[C@@]34O | inactive |
| C=C(C)[C@H]1CC[C@]2(C)C3=CC(=O)C(C)=CC[C@]3(C)C(=O)C[C@@]12O | inactive |
| C=C(C)[C@H]1CC[C@@]23CO[C@@](O)(C[C@@]12O)[C@@]1(C)C[C@H]2O[C@]13C(=O)C(O)=C2C | inactive |
| C=C(CO)[C@H]1CC[C@@]2(C)C1=CC(=O)[C@@]1(C)C[C@H]3O[C@@]21CC(=O)[C@H]3C | inactive |
| C=C(CO)[C@H]1CC[C@]2(C)[C@@]34CC(=O)[C@@H](C)[C@@H](C[C@]3(C)C(=O)C[C@@]12O)O4 | inactive |

Tested on: Escherichia coli
Assay: Antimicrobial activity against Escherichia coli ATCC35218 assessed as inhibition of microbial growth at 50 uM incubated for 24 hrs by microbroth dilution assay
Assay type: functional, organism-based
Conditions: not given

| Compound | Activity |
| --- | --- |
| C=C(C)[C@H]1CC[C@@]23CO[C@@]4(O)C(=O)[C@@H](C)CC[C@](C)(C(=O)C[C@@]12O)[C@@]34O | inactive |
| C=C(C)[C@H]1CC[C@]2(C)C3=CC(=O)C(C)=CC[C@]3(C)C(=O)C[C@@]12O | inactive |
| C=C(C)[C@H]1CC[C@@]23CO[C@@](O)(C[C@@]12O)[C@@]1(C)C[C@H]2O[C@]13C(=O)C(O)=C2C | inactive |
| C=C(CO)[C@H]1CC[C@@]2(C)C1=CC(=O)[C@@]1(C)C[C@H]3O[C@@]21CC(=O)[C@H]3C | inactive |
| C=C(CO)[C@H]1CC[C@]2(C)[C@@]34CC(=O)[C@@H](C)[C@@H](C[C@]3(C)C(=O)C[C@@]12O)O4 | inactive |

Tested on: HepG2
Assay: Cytotoxicity against human HepG2 cells assessed as cell growth inhibition at 50 uM incubated for 48 hrs by CCK-8 assay
Assay type: functional, cell-based
Conditions: not given

| Compound | Activity |
| --- | --- |
| C=C(C)[C@H]1CC[C@@]23CO[C@@]4(O)C(=O)[C@@H](C)CC[C@](C)(C(=O)C[C@@]12O)[C@@]34O | inactive |
| C=C(C)[C@H]1CC[C@]2(C)C3=CC(=O)C(C)=CC[C@]3(C)C(=O)C[C@@]12O | inactive |
| C=C(C)[C@H]1CC[C@@]23CO[C@@](O)(C[C@@]12O)[C@@]1(C)C[C@H]2O[C@]13C(=O)C(O)=C2C | inactive |
| C=C(CO)[C@H]1CC[C@@]2(C)C1=CC(=O)[C@@]1(C)C[C@H]3O[C@@]21CC(=O)[C@H]3C | inactive |
| C=C(CO)[C@H]1CC[C@]2(C)[C@@]34CC(=O)[C@@H](C)[C@@H](C[C@]3(C)C(=O)C[C@@]12O)O4 | inactive |

Tested on: HeLa
Assay: Cytotoxicity against human HeLa cells assessed as cell growth inhibition at 50 uM incubated for 48 hrs by CCK-8 assay
Assay type: functional, cell-based
Conditions: not given

| Compound | Activity |
| --- | --- |
| C=C(C)[C@H]1CC[C@@]23CO[C@@]4(O)C(=O)[C@@H](C)CC[C@](C)(C(=O)C[C@@]12O)[C@@]34O | inactive |
| C=C(C)[C@H]1CC[C@]2(C)C3=CC(=O)C(C)=CC[C@]3(C)C(=O)C[C@@]12O | inactive |
| C=C(C)[C@H]1CC[C@@]23CO[C@@](O)(C[C@@]12O)[C@@]1(C)C[C@H]2O[C@]13C(=O)C(O)=C2C | inactive |
| C=C(CO)[C@H]1CC[C@@]2(C)C1=CC(=O)[C@@]1(C)C[C@H]3O[C@@]21CC(=O)[C@H]3C | inactive |
| C=C(CO)[C@H]1CC[C@]2(C)[C@@]34CC(=O)[C@@H](C)[C@@H](C[C@]3(C)C(=O)C[C@@]12O)O4 | inactive |

Tested on: not listed separately
Assay: Cytotoxicity against male BALB/c mouse Splenocyte cells incubated for 48 hrs by CCK-8 assay
Assay type: toxicity, cell-based
Conditions: splenocytes

| Compound | CC50 at 48 h [µM] |
| --- | --- |
| C=C(CO)[C@H]1CC[C@@]2(C)C1=CC(=O)[C@@]1(C)C[C@H]3O[C@@]21CC(=O)[C@H]3C | > 50 |
| C=C(CO)[C@H]1CC[C@]2(C)[C@@]34CC(=O)[C@@H](C)[C@@H](C[C@]3(C)C(=O)C[C@@]12O)O4 | > 50 |

Tested on: not listed separately
Assay: Selectivity index, ratio of CC50 for cytotoxicity against male BALB/c mouse Splenocyte cells to IC50 for immunosuppressive activity in male BALB/c mouse splenocyte assessed as reduction in ConA-induced T-cell proliferation
Assay type: toxicity, cell-based
Conditions: splenocytes, read-out: Ratio CC50/IC50

| Compound | selectivity ratio |
| --- | --- |
| C=C(CO)[C@H]1CC[C@@]2(C)C1=CC(=O)[C@@]1(C)C[C@H]3O[C@@]21CC(=O)[C@H]3C | > 2.5 |
| C=C(CO)[C@H]1CC[C@]2(C)[C@@]34CC(=O)[C@@H](C)[C@@H](C[C@]3(C)C(=O)C[C@@]12O)O4 | > 2.6 |

Tested on: Splenocyte
Assay: Immunosuppressive activity in male BALB/c mouse splenocyte assessed as reduction in ConA-induced T-cell proliferation incubated for 48 hrs by CCK-8 assay
Assay type: functional, cell-based
Conditions: not given

| Compound | IC50 [µM] |
| --- | --- |
| C=C(CO)[C@H]1CC[C@@]2(C)C1=CC(=O)[C@@]1(C)C[C@H]3O[C@@]21CC(=O)[C@H]3C | 20 |
| C=C(CO)[C@H]1CC[C@]2(C)[C@@]34CC(=O)[C@@H](C)[C@@H](C[C@]3(C)C(=O)C[C@@]12O)O4 | 19 |

Tested on: not listed separately
Assay: Selectivity index, ratio of CC50 for cytotoxicity against male BALB/c mouse Splenocyte cells to IC50 for immunosuppressive activity in male BALB/c mouse splenocyte assessed as reduction in LPS-induced B-cell proliferation
Assay type: toxicity, cell-based
Conditions: splenocytes, read-out: Ratio CC50/IC50

| Compound | selectivity ratio |
| --- | --- |
| C=C(CO)[C@H]1CC[C@@]2(C)C1=CC(=O)[C@@]1(C)C[C@H]3O[C@@]21CC(=O)[C@H]3C | > 6.3 |
| C=C(CO)[C@H]1CC[C@]2(C)[C@@]34CC(=O)[C@@H](C)[C@@H](C[C@]3(C)C(=O)C[C@@]12O)O4 | > 17 |
